Patent publication US20180338980A1, “AROMATIC SULFONAMIDE DERIVATIVES” (BAYER PHARMA AKTIENGESELLSCHAFT, priority 2015, published 2018)

Tests used:
P2X4 [1] = target: T1, P2X4 (Homo sapiens, UniProt Q99571); assay: Assay A: human P2X4 receptor cell line, FLIPR calcium assay (Fluo-8, agonist Bz-ATP at EC80); assay type: cell-based; set-up: host or cells: HEK 293 (recombinant, constitutively expressing; with mitochondrial photina in Assay B); conditions: HEK human P2X4 cells, Fluo-8 FLIPR; for IC50: Bz-ATP at EC80, average values; for Emax: percentage of maximal inhibition, read-out: human P2X4 Assay A avg Efficacy
T1 sequence (Q99571 1-388): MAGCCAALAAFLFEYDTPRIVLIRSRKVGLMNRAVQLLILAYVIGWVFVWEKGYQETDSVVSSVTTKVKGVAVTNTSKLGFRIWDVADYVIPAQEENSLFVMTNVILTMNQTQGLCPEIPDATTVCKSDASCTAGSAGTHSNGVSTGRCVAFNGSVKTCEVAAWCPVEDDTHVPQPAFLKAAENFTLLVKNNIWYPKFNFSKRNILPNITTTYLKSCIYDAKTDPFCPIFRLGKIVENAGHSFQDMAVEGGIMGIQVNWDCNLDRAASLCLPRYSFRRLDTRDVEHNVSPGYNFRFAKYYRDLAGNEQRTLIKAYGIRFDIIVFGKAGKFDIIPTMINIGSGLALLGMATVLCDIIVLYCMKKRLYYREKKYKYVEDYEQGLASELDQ
How it was run: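 Antagonism read as inhibition of the calcium response to EC80 Bz-ATP, by peak-over-basal Fluo-8 fluorescence over 120 s, normalized to DMSO wells. Human P2X4-HEK cells, dye-loaded 30 min in probenecid-containing HBSS/HEPES pH 7.4, received compound 30 min beforehand at room temperature, 0.5% DMSO final. Triplicates fitted for IC50, maximal inhibition and Hill slope.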

P2X4 [2] = target: T1, P2X4; assay: Assay B: human P2X4 receptor cell line, mitochondrial photina luminescence (agonist Bz-ATP at EC50); assay type: cell-based; set-up: host or cells: HEK 293 (recombinant, constitutively expressing; with mitochondrial photina in Assay B); conditions: HEK human P2X4 cell line, photina luminescence, agonist Bz-ATP at EC50, average; for Emax: read-out: human P2X4 Assay B avg Efficacy
How it was run: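 Bz-ATP at its EC50 activates human P2X4 stably expressed in a cell line that also carries the calcium-sensitive photoprotein mitochondrial photina (coelenterazine cofactor). Light emitted on calcium influx is measured straight away in a luminometer. Reduced luminescence indicates antagonism.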

| IC50 (P2X4 [1]) | Emax (P2X4 [1]) | IC50 (P2X4 [2]) | Emax (P2X4 [2]) | SMILES |
| --- | --- | --- | --- | --- |
| 102 nM | 85% | 145 nM | 66% | NS(=O)(=O)c1cc(NC(=O)Cc2ccccc2C(F)F)ccc1Oc1cccc(Cl)c1 [Example 089, N-[4-(3-Chlorophenoxy)-3-sulfamoylphenyl]-2-[2-(difluoromethyl)phenyl]acetamide] |
| 27 nM | 75% | 53 nM | 58% | NS(=O)(=O)c1cc(NC(=O)Cc2ccccc2Br)ccc1Oc1cccc(Cl)c1 [Example 091, 2-(2-Bromophenyl)-N-[4-(3-chlorophenoxy)-3-sulfamoylphenyl]acetamide] |
| 137 nM | 64% | 99 nM | 63% | Cc1ccc(CC(=O)Nc2ccc(Oc3cccc(Cl)c3)c(S(N)(=O)=O)c2)c(Cl)c1 [Example 095, 2-(2-Chloro-4-methylphenyl)-N-[4-(3-chlorophenoxy)-3-sulfamoylphenyl]acetamide] |
| 78 nM | 72% | 27 nM | 59% | Cc1cccc(Cl)c1CC(=O)Nc1ccc(Oc2cccc(Cl)c2)c(S(N)(=O)=O)c1 [Example 096, 2-(2-Chloro-6-methylphenyl)-N-[4-(3-chlorophenoxy)-3-sulfamoylphenyl]acetamide] |
| 119 nM | 84% | 123 nM | 78% | Cc1ccc(Cl)c(CC(=O)Nc2ccc(Oc3cccc(Cl)c3)c(S(N)(=O)=O)c2)c1 [Example 097, 2-(2-Chloro-5-methylphenyl)-N-[4-(3-chlorophenoxy)-3-sulfamoylphenyl]acetamide] |
| 38 nM | 97% | 59 nM | 69% | COc1cccc(Cl)c1CC(=O)Nc1ccc(Oc2cccc(Cl)c2)c(S(N)(=O)=O)c1 [Example 101, 2-(2-Chloro-6-methoxyphenyl)-N-[4-(3-chlorophenoxy)-3-sulfamoylphenyl]acetamide] |
| 68 nM | 85% | 84 nM | 61% | COc1ccc(Cl)c(CC(=O)Nc2ccc(Oc3cccc(Cl)c3)c(S(N)(=O)=O)c2)c1 [Example 102, 2-(2-Chloro-5-methoxyphenyl)-N-[4-(3-chlorophenoxy)-3-sulfamoylphenyl]acetamide] |
| 208 nM | 78% | 141 nM | 70% | NS(=O)(=O)c1cc(NC(=O)Cc2cccc(Cl)c2Cl)ccc1Oc1cccc(Cl)c1 [Example 103, N-[4-(3-Chlorophenoxy)-3-sulfamoylphenyl]-2-(2,3-dichlorophenyl)acetamide] |
| 201 nM | 86% | 901 nM | 64% | NS(=O)(=O)c1cc(NC(=O)Cc2cccc(C(F)(F)F)c2Cl)ccc1Oc1cccc(Cl)c1 [Example 107, N-[4-(3-Chlorophenoxy)-3-sulfamoylphenyl]-2-[2-chloro-3-(trifluoromethyl)phenyl]acetamide] |
| 254 nM | 79% | 159 nM | 37% | NS(=O)(=O)c1cc(NC(=O)Cc2ccc(Cl)cc2Cl)ccc1Oc1cccc(Cl)c1 [Example 110, N-[4-(3-Chlorophenoxy)-3-sulfamoylphenyl]-2-(2,4-dichlorophenyl)acetamide] |
| 173 nM | 88% | 239 nM | 73% | NS(=O)(=O)c1cc(NC(=O)Cc2ccccc2OC(F)F)ccc1Oc1cccc(Cl)c1 [Example 113, N-[4-(3-Chlorophenoxy)-3-sulfamoylphenyl]-2-[2-(difluoromethoxy)phenyl]acetamide] |
|  | 87% |  | 72% | NS(=O)(=O)c1cc(NC(=O)Cc2ccc(C(F)(F)F)cc2)ccc1Oc1cccc(Cl)c1 [Example 116, N-[4-(3-Chlorophenoxy)-3-sulfamoylphenyl]-2-[4-(trifluoromethyl)phenyl]acetamide] |
| 43 nM | 94% | 468 nM | 61% | NS(=O)(=O)c1cc(NC(=O)Cc2cc(Br)ccc2Cl)ccc1Oc1cccc(Cl)c1 [Example 117, 2-(5-Bromo-2-chlorophenyl)-N-[4-(3-chlorophenoxy)-3-sulfamoylphenyl]acetamide] |
| 65 nM | 83% | 194 nM | 78% | Cc1ccc(F)c(CC(=O)Nc2ccc(Oc3cccc(Cl)c3)c(S(N)(=O)=O)c2)c1Cl [Example 120, 2-(2-Chloro-6-fluoro-3-methylphenyl)-N-[4-(3-chlorophenoxy)-3-sulfamoylphenyl]acetamide] |

Continued, molecule first:

| SMILES | IC50 (P2X4 [1]) | Emax (P2X4 [1]) | IC50 (P2X4 [2]) | Emax (P2X4 [2]) |
| --- | --- | --- | --- | --- |
| NS(=O)(=O)c1cc(NC(=O)Cc2ccccc2Cl)ccc1Oc1ccc(N2CCOC2=O)cc1 [Example 063, 2-(2-chlorophenyl)-N-{4-[4-(2-oxo-1,3-oxazolidin-3-yl)phenoxy]-3-sulfamoylphenyl}acetamide] | 90 nM | 82% | 221 nM | 70% |
| NS(=O)(=O)c1cc(NC(=O)Cc2ccccc2Cl)ccc1Oc1ccccc1Cl [Example 065, N-[4-(2-Chlorophenoxy)-3-sulfamoylphenyl]-2-(2-chlorophenyl)acetamide] |  | 81% |  | 70% |
| NS(=O)(=O)c1cc(NC(=O)Cc2ccccc2Cl)ccc1Oc1ccc(Cl)cc1 [Example 066, N-[4-(4-Chlorophenoxy)-3-sulfamoylphenyl]-2-(2-chlorophenyl)acetamide] | > 25000 nM | 51% | 129 nM | 46% |
| NS(=O)(=O)c1cc(NC(=O)Cc2ccccc2)ccc1Oc1ccc(Cl)cc1 [Example 077, N-[4-(4-Chlorophenoxy)-3-sulfamoylphenyl]-2-phenylacetamide] | 8340 nM | 54% | 201 nM | 53% |
| NS(=O)(=O)c1cc(NC(=O)Cc2ccccc2Cl)ccc1Oc1cnc(Cl)nc1 [Example 079] |  | 54% |  | 40% |
| NS(=O)(=O)c1cc(NC(=O)Cc2ccccc2Cl)ccc1Oc1cncc(F)c1 [Example 080, 2-(2-Chlorophenyl)-N-{4-[(5-fluoropyridin-3-yl)oxy]-3-sulfamoylphenyl}acetamide] | 44 nM | 65% | 140 nM | 51% |
| NS(=O)(=O)c1cc(NC(=O)Cc2ccccc2Cl)ccc1Oc1ccc(Cl)nc1 [Example 081, 2-(2-Chlorophenyl)-N-{4-[(6-chloropyridin-3-yl)oxy]-3-sulfamoylphenyl}acetamide] | 65 nM | 43% | > 16000 nM | 36% |
| NS(=O)(=O)c1cc(NC(=O)Cc2ccccc2Cl)c(Cl)cc1Oc1cccc(Cl)c1 [Example 082, N-[2-chloro-4-(3-chlorophenoxy)-5-sulfamoylphenyl]-2-(2-chlorophenyl)acetamide] | > 25000 nM | 31% | > 50000 nM | 33% |
| NS(=O)(=O)c1cc(NC(=O)Cc2cccc(F)c2Cl)c(Cl)cc1Oc1cccc(Cl)c1 [Example 083, N-[2-chloro-4-(3-chlorophenoxy)-5-sulfamoylphenyl]-2-(2-chloro-3-fluorophenyl)acetamide] | > 25000 nM | 39% |  | 35% |
| NS(=O)(=O)c1cc(NC(=O)Cc2ccc(F)cc2)ccc1Oc1cccc(Cl)c1 [Example 085, N-[4-(3-Chlorophenoxy)-3-sulfamoylphenyl]-2-(4-fluorophenyl)acetamide] |  | 86% |  | 59% |
